How the values were obtained:
102 cell lines [1] = experiment: Oncolines viability of 120 reference anti-cancer agents; assay type: cell-based, human
Method: Pearson correlations were calculated between SJ3149 ^10log IC50 values and those of the 120 reference agents, to determine the similarity of compound IC50 fingerprints.

102 cell lines [2] = experiment: as above; assay type: cell-based, human; remark: listed apart in the source
102 cell lines [3] = conditions: cited from earlier work

IC50 (102 cell lines [1]; G-361, Melanoma): 2.53 µM
IC50 (102 cell lines [1]; JAR, Gestational choriocarcinoma): 7.25 µM
IC50 (102 cell lines [1]; KG-1, Adult acute myeloid leukemia): > 31.6 µM
IC50 (102 cell lines [1]; MOLT-4, Adult T acute lymphoblastic leukemia): 2.87 µM
IC50 (102 cell lines [1]; NCI-H460, Large cell lung carcinoma): 4.2 µM
IC50 (102 cell lines [1]; RL, Diffuse large B-cell lymphoma, TP53 Mutant): > 31.6 µM
IC50 (102 cell lines [1]; SNU-C2B, Cecum adenocarcinoma, TP53 Mutant): > 31.6 µM
IC50 (102 cell lines [1]; SR, Anaplastic large cell lymphoma, TP53 Mutant): 2.04 µM
IC50 (102 cell lines [1]; SW948, Colon adenocarcinoma, TP53 Mutant): > 31.6 µM
IC50 (102 cell lines [1]; cell line ACHN, Papillary renal cell carcinoma, TP53 Wild-type): 3.3 µM
IC50 (102 cell lines [1]; cell line AsPC-1, Pancreatic ductal adenocarcinoma, TP53 Mutant): > 31.6 µM
IC50 (102 cell lines [1]; cell line Daoy, Medulloblastoma, TP53 Mutant): > 31.6 µM
IC50 (102 cell lines [1]; cell line TT (Hereditary thyroid gland medullary carcinoma), TP53 Wild-type): 7.4 µM
IC50 (102 cell lines [1]; cell line U-2 OS (Osteosarcoma), TP53 Wild-type): 13.3 µM
IC50 (102 cell lines [2]; FaDu, Hypopharyngeal squamous cell carcinoma): > 31.6 µM
IC50 (102 cell lines [2]; HCT 116, Colon carcinoma): 4.55 µM
IC50 (102 cell lines [2]; HCT-15, Colon adenocarcinoma): > 31.6 µM
IC50 (102 cell lines [2]; HL-60, Adult acute myeloid leukemia): > 31.6 µM
IC50 (102 cell lines [2]; HT-1080, Fibrosarcoma): 2.06 µM
IC50 (102 cell lines [2]; HT, Diffuse large B-cell lymphoma): > 31.6 µM
IC50 (102 cell lines [2]; Hs 578T, Invasive ductal carcinoma): > 31.6 µM
IC50 (102 cell lines [2]; Hs 746T, Gastric adenocarcinoma): > 31.6 µM
IC50 (102 cell lines [2]; Hs 766T, Pancreatic adenocarcinoma): > 31.6 µM
IC50 (102 cell lines [2]; HuTu 80, Duodenal adenocarcinoma): 3.91 µM
IC50 (102 cell lines [2]; J82, Bladder carcinoma): > 31.6 µM
IC50 (102 cell lines [2]; Jurkat E6.1, Childhood T acute lymphoblastic leukemia): > 31.6 µM
IC50 (102 cell lines [2]; K-562, Chronic myelogenous leukemia): > 31.6 µM
IC50 (102 cell lines [2]; KATO III, Signet ring cell gastric adenocarcinoma): 29.3 µM
IC50 (102 cell lines [2]; KLE, Endometrial adenocarcinoma): > 31.6 µM
IC50 (102 cell lines [2]; KU812, Chronic myelogenous leukemia): > 31.6 µM
IC50 (102 cell lines [2]; LNCaP FGC, Prostate carcinoma): 10.9 µM
IC50 (102 cell lines [2]; LS 174T, Colon adenocarcinoma): 3.7 µM
IC50 (102 cell lines [2]; LS411N, Cecum adenocarcinoma): > 31.6 µM
IC50 (102 cell lines [2]; LoVo, Colon adenocarcinoma): 10.2 µM
IC50 (102 cell lines [2]; MCF7, Invasive ductal carcinoma): 11.4 µM
IC50 (102 cell lines [2]; MG-63, Osteosarcoma): > 31.6 µM
IC50 (102 cell lines [2]; MIA PaCa-2, Pancreatic ductal adenocarcinoma): > 31.6 µM
IC50 (102 cell lines [2]; MeWo, Melanoma): > 31.6 µM
IC50 (102 cell lines [2]; NCI-H82, Small cell lung carcinoma): > 31.6 µM
IC50 (102 cell lines [2]; NCI-H661, Large cell lung carcinoma): > 31.6 µM
IC50 (102 cell lines [2]; OVCAR-3, High grade ovarian serous adenocarcinoma, TP53 Mutant): > 31.6 µM
IC50 (102 cell lines [2]; PA-1, Ovarian mixed germ cell tumor, TP53 Wild-type): 2.31 µM
IC50 (102 cell lines [2]; PC-3, Prostate carcinoma, TP53 Mutant): > 31.6 µM
IC50 (102 cell lines [2]; PFSK-1, Primitive neuroectodermal tumor, TP53 Mutant): > 31.6 µM
IC50 (102 cell lines [2]; RKO, Colon carcinoma, TP53 Wild-type): 15.7 µM
IC50 (102 cell lines [2]; RL95-2, Endometrial adenosquamous carcinoma, TP53 Mutant): 24.6 µM
IC50 (102 cell lines [2]; RPMI-7951, Melanoma, TP53 Mutant): > 31.6 µM
IC50 (102 cell lines [2]; RS4-11, Adult B acute lymphoblastic leukemia, TP53 Wild-type): 4.71 µM
IC50 (102 cell lines [2]; RT4, Bladder carcinoma, TP53 Wild-type): 7.03 µM
IC50 (102 cell lines [2]; SHP-77, Small cell lung carcinoma, TP53 Mutant): 27.3 µM
IC50 (102 cell lines [2]; SJCRH30, Alveolar rhabdomyosarcoma, TP53 Mutant): > 31.6 µM
IC50 (102 cell lines [2]; SK-N-AS, Neuroblastoma, TP53 Wild-type): > 31.6 µM
IC50 (102 cell lines [2]; SK-N-FI, Neuroblastoma, TP53 Mutant): > 31.6 µM
IC50 (102 cell lines [2]; SNU-5, Gastric carcinoma, TP53 Mutant): > 31.6 µM
IC50 (102 cell lines [2]; SU-DHL-1, Anaplastic large cell lymphoma, TP53 Mutant): 30.7 µM
IC50 (102 cell lines [2]; SU-DHL-6, Diffuse large B-cell lymphoma, TP53 Mutant): 23.4 µM
IC50 (102 cell lines [2]; SUP-T1, Childhood T lymphoblastic lymphoma, TP53 Mutant): > 31.6 µM
IC50 (102 cell lines [2]; SW48, Colon adenocarcinoma, TP53 Wild-type): 7.63 µM
IC50 (102 cell lines [2]; SW480, Colon adenocarcinoma, TP53 Mutant): > 31.6 µM
IC50 (102 cell lines [2]; SW620, Colon adenocarcinoma, TP53 Mutant): 13.6 µM
IC50 (102 cell lines [2]; SW626, Colon adenocarcinoma, TP53 Mutant): > 31.6 µM
IC50 (102 cell lines [2]; SW837, Rectal adenocarcinoma, TP53 Mutant): > 31.6 µM
IC50 (102 cell lines [2]; SW872, Liposarcoma, TP53 Mutant): > 31.6 µM
IC50 (102 cell lines [2]; SW900, Squamous cell lung carcinoma, TP53 Mutant): > 31.6 µM
IC50 (102 cell lines [2]; SW982, Biphasic synovial sarcoma, TP53 Wild-type): 3.11 µM
IC50 (102 cell lines [2]; T24, Bladder carcinoma, TP53 Mutant): > 31.6 µM
IC50 (102 cell lines [2]; T98G, Glioblastoma, TP53 Mutant): > 31.6 µM
IC50 (102 cell lines [2]; cell line 769-P, Renal cell carcinoma, TP53 Wild-type): 5.52 µM
IC50 (102 cell lines [2]; cell line 786-O, Renal cell carcinoma, TP53 Mutant): 13.4 µM
IC50 (102 cell lines [2]; cell line 5637, Bladder carcinoma, TP53 Mutant): > 31.6 µM
IC50 (102 cell lines [2]; cell line A375, Amelanotic melanoma, TP53 Wild-type): 6.9 µM
IC50 (102 cell lines [2]; cell line A388, Squamous cell carcinoma, TP53 Mutant): > 31.6 µM
IC50 (102 cell lines [2]; cell line A-172, Glioblastoma, TP53 Wild-type): 11.5 µM
IC50 (102 cell lines [2]; cell line A-427, Lung adenocarcinoma, TP53 Wild-type): 5.36 µM
IC50 (102 cell lines [2]; cell line A-498, Renal cell carcinoma, TP53 Wild-type): 5.59 µM
IC50 (102 cell lines [2]; cell line A-549, Lung adenocarcinoma, TP53 Wild-type): 6.56 µM
IC50 (102 cell lines [2]; cell line A-704, Renal cell carcinoma, TP53 Mutant): > 31.6 µM
IC50 (102 cell lines [2]; cell line AN3 CA, Endometrial adenocarcinoma, TP53 Mutant): > 31.6 µM
IC50 (102 cell lines [2]; cell line AU-565, Breast adenocarcinoma, TP53 Mutant): > 31.6 µM
IC50 (102 cell lines [2]; cell line BT-20, Invasive ductal carcinoma, TP53 Mutant): > 31.6 µM
IC50 (102 cell lines [2]; cell line BT-549, Invasive ductal carcinoma, TP53 Mutant): > 31.6 µM
IC50 (102 cell lines [2]; cell line BxPC-3, Pancreatic ductal adenocarcinoma, TP53 Mutant): > 31.6 µM
IC50 (102 cell lines [2]; cell line C-33 A, Cervical squamous cell carcinoma, TP53 Mutant): > 31.6 µM
IC50 (102 cell lines [2]; cell line CAL 27, Tongue squamous cell carcinoma, TP53 Mutant): > 31.6 µM
IC50 (102 cell lines [2]; cell line CCF-STTG1, Astrocytoma, TP53 Wild-type): 7.17 µM
IC50 (102 cell lines [2]; cell line CCRF-CEM, Childhood T acute lymphoblastic leukemia, TP53 Mutant): > 31.6 µM
IC50 (102 cell lines [2]; cell line COLO 205, Colon adenocarcinoma, TP53 Mutant): > 31.6 µM
IC50 (102 cell lines [2]; cell line COLO 829, Cutaneous melanoma, TP53 Wild-type): 15.6 µM
IC50 (102 cell lines [2]; cell line DB, Diffuse large B-cell lymphoma, TP53 Mutant): 28.6 µM
IC50 (102 cell lines [2]; cell line DLD-1, Colon adenocarcinoma, TP53 Mutant): > 31.6 µM
IC50 (102 cell lines [2]; cell line DU 145, Prostate carcinoma, TP53 Mutant): > 31.6 µM
IC50 (102 cell lines [2]; cell line DU4475, Breast carcinoma, TP53 Wild-type): 4.62 µM
IC50 (102 cell lines [2]; cell line DoTc2 4510, Cervical carcinoma, TP53 Wild-type): > 31.6 µM
IC50 (102 cell lines [2]; cell line ES-2, Ovarian clear cell adenocarcinoma, TP53 Mutant): > 31.6 µM
IC50 (102 cell lines [2]; cell line TCCSUP (Bladder carcinoma), TP53 Mutant): > 31.6 µM
IC50 (102 cell lines [2]; cell line THP-1 (Childhood acute monocytic leukemia), TP53 Mutant): > 31.6 µM
IC50 (102 cell lines [2]; cell line U-87 MG (Glioblastoma), TP53 Wild-type): 4.37 µM
IC50 (102 cell lines [2]; cell line U-118 MG (Astrocytoma), TP53 Mutant): > 31.6 µM
IC50 (102 cell lines [2]; cell line VA-ES-BJ (Epithelioid sarcoma), TP53 Wild-type): 1.73 µM
Structure (SMILES): COc1ccc(C2=N[C@@H](c3ccc(Cl)cc3)[C@@H](c3ccc(Cl)cc3)N2C(=O)N2CCNC(=O)C2)c(OC(C)C)c1 [Nutlin-3a]
IC50 (102 cell lines [2]; NCCIT, Testicular embryonal carcinoma): > 31.6 µM
IC50 (102 cell lines [2]; RD, Embryonal rhabdomyosarcoma, TP53 Mutant): > 31.6 µM
IC50 (102 cell lines [2]; cell line A-204, Embryonal rhabdomyosarcoma, TP53 Wild-type): 3.06 µM
Potency in responsive cell lines (102 cell lines [3]): micromolar potency
